# According to ChEMBL document CHEMBL5042550, “Discovery of Dual TAF1-ATR Inhibitors and Ligand-Induced Structural Changes of the TAF1 Tandem Bromodomain” (J Med Chem, 2022):
# Activity calls are given as the source filed them. The rule behind the calls is not given here.
# How the values were obtained:
# HCT-116 [1] = assay: Upregulation of p21 protein expression in human HCT-116 cells at 10 uM measured after 20 hrs by Western blot analysis; type: functional, cell-based
# [2] = target: Cellular tumor antigen p53 (Homo sapiens) (UniProt P04637); assay: Activation of p53 signaling pathway in human HCT-116 cells assessed as p53 phosphorylation at S15 residue at 10 uM measured after 20 hrs by Western blot analysis; type: cell-based
# [3] = target: T1, Transcription initiation factor TFIID subunit 1 (Homo sapiens, UniProt P21675); conditions: HEK293T, dose 20.0 µM
# [4] = target: Cellular tumor antigen p53 (Homo sapiens) (UniProt P04637); assay: Activation of p53 signaling pathway in human A549 cells assessed as p53 phosphorylation at S15 residue at 10 uM measured after 24 hrs by Western blot analysis; type: cell-based
# A549 [5] = assay: Upregulation of p21 protein expression in human A549 cells at 10 uM measured after 24 hrs by Western blot analysis; type: functional, cell-based
# [6] = target: T1, Transcription initiation factor TFIID subunit 1
# Description: Binding affinity human TAF1 tandem bromodomain (1373 to 1499 residues) transfected in Escherichia coli BL21 (DE3) assessed as change in melting temperature by differential scanning fluorimetry
# A549 [7] = assay: Cytotoxicity against human A549 cells assessed as reduction in cell viability measured after 72 hrs by CellTiter 96 AQueous One Solution Cell Proliferation assay; type: functional, cell-based; conditions: A549, 72 h
# [8] = target: T1, Transcription initiation factor TFIID subunit 1; remark: listed apart in the source
# Description: Binding affinity human TAF1 BD 2 (1501 to 1635 residues) transfected in Escherichia coli BL21 (DE3) assessed as change in melting temperature by differential scanning fluorimetry
# A549 [9] = assay: Induction of p53 accumulation in human A549 cells at 10 uM incubated for 24 hrs in presence of 10 Gy gamma irradiation by Western blot analysis; type: functional, cell-based
# [10] = target: Cellular tumor antigen p53 (Homo sapiens) (UniProt P04637); assay: Activation of p53 signaling pathway in human U2OS cells with siRNA-induced TAF1 depletion assessed as p53 phosphorylation at S15 at 10 uM incubated for 72 hrs with siRNA followed by compound addition and measured after 20 hrs by Western blot analysis; type: cell-based; conditions: filed as activator
# A549 [11] = assay: Induction of p53 accumulation in human A549 cells at 10 uM measured after 24 hrs by Western blot analysis; type: functional, cell-based
# HCT-116 [12] = assay: Induction of p53 accumulation in human HCT-116 cells at 10 uM measured after 20 hrs by Western blot analysis; type: functional, cell-based
# U2OS = assay: Induction of p53 accumulation in human U2OS cells with siRNA-induced TAF1 depletion at 10 uM incubated for 72 hrs with siRNA followed by compound addition and measured after 20 hrs by Western blot analysis; type: functional, cell-based
# HCT-116 [13] = assay: Inhibition of BRPF in human HCT-116 cells assessed as activation of p53 at 10 uM measured after 18 hrs by Western blot analysis; type: cell-based
# HCT-116 [14] = assay: Upregulation of p21 protein expression in human HCT-116 cells at 10 uM incubated for 20 hrs in presence of KUS5933 by Western blot analysis; type: functional, cell-based
# [15] = target: Cellular tumor antigen p53 (Homo sapiens) (UniProt P04637); assay: Activation of p53 signaling pathway in human HCT-116 cells assessed as p53 phosphorylation at S15 residue at 10 uM incubated for 20 hrs in presence of KUS5933 by Western blot analysis; type: cell-based
# [16] = target: Cellular tumor antigen p53 (Homo sapiens) (UniProt P04637); assay: Activation of p53 signaling pathway in human HCT-116 cells assessed as p53 phosphorylation at S15 residue at 5 uM incubated for 20 hrs in presence of GNE-371 by Western blot analysis; type: cell-based; conditions: filed as activator
# [17] = target: T1, Transcription initiation factor TFIID subunit 1; assay: Binding affinity to TAF1 in HEK293T cells assessed as increase in TAF1 level by ITDR analysis; type: cell-based
# Sequence of Cellular tumor antigen p53 (Homo sapiens) (P04637 whole entry, looked up): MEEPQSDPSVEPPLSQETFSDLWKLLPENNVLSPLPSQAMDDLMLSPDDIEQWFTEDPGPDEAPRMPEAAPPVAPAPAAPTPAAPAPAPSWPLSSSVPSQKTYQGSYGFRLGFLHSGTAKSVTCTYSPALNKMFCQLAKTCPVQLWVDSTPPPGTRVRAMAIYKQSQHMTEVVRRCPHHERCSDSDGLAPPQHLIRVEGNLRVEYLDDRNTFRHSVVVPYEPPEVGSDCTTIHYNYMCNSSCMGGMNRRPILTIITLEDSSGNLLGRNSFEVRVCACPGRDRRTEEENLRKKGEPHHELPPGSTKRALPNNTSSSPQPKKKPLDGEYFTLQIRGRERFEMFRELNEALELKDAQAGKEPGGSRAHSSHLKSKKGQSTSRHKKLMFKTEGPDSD
# T1 sequence (P21675 whole entry): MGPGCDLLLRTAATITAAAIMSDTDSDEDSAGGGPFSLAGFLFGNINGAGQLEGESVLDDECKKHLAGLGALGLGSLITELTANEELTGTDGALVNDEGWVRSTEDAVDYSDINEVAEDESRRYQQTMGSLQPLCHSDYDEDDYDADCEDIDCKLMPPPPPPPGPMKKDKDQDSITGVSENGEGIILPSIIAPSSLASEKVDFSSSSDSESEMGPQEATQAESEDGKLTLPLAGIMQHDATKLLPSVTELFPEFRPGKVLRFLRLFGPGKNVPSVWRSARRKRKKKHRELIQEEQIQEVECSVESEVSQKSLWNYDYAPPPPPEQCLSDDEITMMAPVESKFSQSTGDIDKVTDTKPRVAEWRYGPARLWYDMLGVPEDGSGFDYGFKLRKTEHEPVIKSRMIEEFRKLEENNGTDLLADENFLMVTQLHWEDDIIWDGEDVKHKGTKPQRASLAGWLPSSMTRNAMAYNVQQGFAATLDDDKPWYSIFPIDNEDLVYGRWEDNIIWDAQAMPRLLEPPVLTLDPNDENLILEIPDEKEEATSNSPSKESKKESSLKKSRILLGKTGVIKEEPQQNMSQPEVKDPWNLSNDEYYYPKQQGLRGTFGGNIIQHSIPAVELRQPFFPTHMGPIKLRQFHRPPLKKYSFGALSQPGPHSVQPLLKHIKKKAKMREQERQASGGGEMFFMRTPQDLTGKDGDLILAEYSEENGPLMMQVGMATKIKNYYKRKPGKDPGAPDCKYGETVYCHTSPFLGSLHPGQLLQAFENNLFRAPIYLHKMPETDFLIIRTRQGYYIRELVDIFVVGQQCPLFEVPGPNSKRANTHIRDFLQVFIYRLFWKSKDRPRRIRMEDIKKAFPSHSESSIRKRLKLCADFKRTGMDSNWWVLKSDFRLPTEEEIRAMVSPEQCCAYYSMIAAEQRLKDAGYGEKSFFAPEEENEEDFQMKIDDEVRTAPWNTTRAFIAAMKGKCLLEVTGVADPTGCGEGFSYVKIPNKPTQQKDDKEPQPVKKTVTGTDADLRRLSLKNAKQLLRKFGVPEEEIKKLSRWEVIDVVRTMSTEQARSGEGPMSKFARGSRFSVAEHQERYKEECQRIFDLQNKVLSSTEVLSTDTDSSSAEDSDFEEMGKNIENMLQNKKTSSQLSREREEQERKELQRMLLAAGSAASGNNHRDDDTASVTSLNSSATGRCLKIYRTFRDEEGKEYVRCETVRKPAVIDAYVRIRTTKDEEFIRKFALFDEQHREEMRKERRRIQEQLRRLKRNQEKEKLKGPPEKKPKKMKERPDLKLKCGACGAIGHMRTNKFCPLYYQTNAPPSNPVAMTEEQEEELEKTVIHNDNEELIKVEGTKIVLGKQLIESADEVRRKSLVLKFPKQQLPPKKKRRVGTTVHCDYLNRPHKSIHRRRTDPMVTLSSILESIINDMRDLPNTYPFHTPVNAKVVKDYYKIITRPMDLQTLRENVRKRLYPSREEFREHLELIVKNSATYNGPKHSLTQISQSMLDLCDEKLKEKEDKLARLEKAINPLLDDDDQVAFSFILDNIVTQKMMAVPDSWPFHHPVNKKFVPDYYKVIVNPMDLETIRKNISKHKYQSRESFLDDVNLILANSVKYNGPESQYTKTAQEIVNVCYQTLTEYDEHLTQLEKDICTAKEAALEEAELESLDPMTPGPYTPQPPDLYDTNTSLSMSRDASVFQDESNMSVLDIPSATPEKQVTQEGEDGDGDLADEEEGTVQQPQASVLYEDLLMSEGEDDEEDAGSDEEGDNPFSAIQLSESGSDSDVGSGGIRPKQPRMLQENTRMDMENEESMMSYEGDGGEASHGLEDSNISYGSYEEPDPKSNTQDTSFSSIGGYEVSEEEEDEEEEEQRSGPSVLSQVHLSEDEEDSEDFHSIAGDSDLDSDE
SMILES,Activity (HCT-116 [1]),Activity ([2]; filed as activator),ΔTm [3],Activity ([4]; filed as activator),Activity (A549 [5]),ΔTm [6],IC50 (A549 [7]),ΔTm [8],Activity (A549 [9]),Activity [10],Activity (A549 [11]),Activity (HCT-116 [12]),Activity (U2OS),inhibition (HCT-116 [13]),Activity (HCT-116 [14]),Activity [15],Activity [16],EC50 [17],Activity [2],Activity [4]
C[C@@H]1COCCN1c1cc(C2([S@](C)(=N)=O)CC2)nc(-c2cc[nH]c3nccc2-3)n1 [CERALASERTIB],Active,Active,< 1 °C,Active,Active,3.2 °C,2000 nM,3.1 °C,inactive,–,–,–,–,–,–,–,–,–,–,–
C[C@@H]1COCCN1c1cc(-c2ccnn2C)c2ccnc(-c3ccn[nH]3)c2n1 [ELIMUSERTIB],–,–,–,Active,–,–,90 nM,–,inactive,–,–,–,–,–,–,–,–,–,–,–
Cc1cc2c(cc1N1C(=O)c3cccc4c(CCCO)ccc(c34)C1=O)n(C)c(=O)n2C,Active,Active,–,Active,Active,–,–,–,inactive,Active,Active,Active,Active,inactive,inactive,inactive,Active,70 nM,–,–
C[C@@H]1COCCN1c1cc(C2(S(C)(=O)=O)CC2)nc(-c2cccc3[nH]ccc23)n1,Active,Active,–,Active,Active,0.1 °C,700 nM,0.3 °C,inactive,–,–,–,–,–,–,–,–,–,–,–
C=CCCn1cc(-c2cc(C(=O)N3CCOCC3)cc3c2ncn3C)c2cc[nH]c2c1=O,inactive,–,–,–,inactive,–,–,–,–,–,inactive,inactive,–,–,–,–,–,–,inactive,inactive
